This assay has as its system P388 leukemia ip, CD2F1 mice, survival T/C. As to the kind of experiment: NCI In Vivo Anticancer Drug Screen. Data for tumor model P388 Leukemia (intraperitoneal) in CD2F1 (CDF1) mice. Particulars: endpoint: median survival time, higher = longer survival. In short, it runs like this: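 Mice carrying the transplanted tumor received test compound or vehicle. Survival was recorded in each group, and the value is the treated-group measurement divided by that of the vehicle-treated control group.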

Where “and” joins values, the source holds several entries; their conditions need not be identical. Equal values may be shown once. Inconclusive results and toxic doses are left out.

Regarding `O=P1(N(CCCl)CCCl)NCCCO1` (stereo not given), the T/C is, setting by setting: (dose: 4.0 mg/kg/injection, schedule: Q01DX009 (ip), vehicle: saline) 116 % of control and 122 % of control; (dose: 6.25 mg/kg/injection, schedule: Q01DX009 (ip), vehicle: saline) 150 % of control and 151 % of control; (dose: 8.0 mg/kg/injection, schedule: Q01DX009 (ip), vehicle: saline) 150 % of control; (dose: 10.0 mg/kg/injection, schedule: Q04DX003 (iv), vehicle: saline) 119 % of control; (dose: 12.5 mg/kg/injection, schedule: Q01DX009 (ip), vehicle: saline) 153 % of control and 185 % of control and 192 % of control; (dose: 15.0 mg/kg/injection, schedule: Q04DX003 (ip), vehicle: saline) 150 % of control. For the same molecule, the T/C is, setting by setting: (dose: 16.0 mg/kg/injection, schedule: Q01DX009 (ip), vehicle: saline) 183 % of control and 188 % of control; (dose: 16.2 mg/kg/injection, schedule: Q04DX003 (ip), vehicle: saline) 153 % of control; (dose: 20.0 mg/kg/injection, schedule: Q01DX009 (ip), vehicle: saline) 187 % of control; (dose: 20.0 mg/kg/injection, schedule: Q04DX003 (ip), vehicle: water) 164 % of control; (dose: 20.0 mg/kg/injection, schedule: Q04DX003 (iv), vehicle: saline) 158 % of control; (dose: 22.2 mg/kg/injection, schedule: Q01DX009 (ip), vehicle: saline) 213 % of control. Besides, the T/C is, setting by setting: (dose: 25.0 mg/kg/injection, schedule: Q04DX003 (ip), vehicle: water) 110 % of control; (dose: 27.0 mg/kg/injection, schedule: Q04DX003 (ip), vehicle: saline) 178 % of control; (dose: 28.8 mg/kg/injection, schedule: Q01DX005 (ip), vehicle: saline) 190 % of control; (dose: 30.0 mg/kg/injection, schedule: Q01DX010 (ip), vehicle: water) 272 % of control; (dose: 30.0 mg/kg/injection, schedule: Q04DX003 (ip), vehicle: saline) 195 % of control; (dose: 31.3 mg/kg/injection, schedule: Q01DX001 (iv), vehicle: saline) 174 % of control. The T/C reads like this: (dose: 32.4 mg/kg/injection, schedule: Q04DX002 (ip), vehicle: saline) 163 % of control and 178 % of control; (dose: 33.3 mg/kg/injection, schedule: Q01DX009 (ip), vehicle: saline) 261 % of control; (dose: 36.0 mg/kg/injection, schedule: Q01DX009 (ip), vehicle: saline) 258 % of control; (dose: 38.9 mg/kg/injection, schedule: Q04DX003 (ip), vehicle: saline) 227 % of control; (dose: 40.0 mg/kg/injection, schedule: Q04DX003 (ip), vehicle: saline) 197 % of control and 204 % of control; (dose: 40.0 mg/kg/injection, schedule: Q04DX003 (ip), vehicle: water) 225 % of control. Also, the T/C is 203 % of control (dose: 40.0 mg/kg/injection, schedule: Q04DX003 (iv), vehicle: saline); 240 % of control (dose: 45.0 mg/kg/injection, schedule: Q01DX010 (ip), vehicle: water); 324 % of control (dose: 45.0 mg/kg/injection, schedule: Q04DX003 (ip), vehicle: saline); 240 % of control (dose: 48.0 mg/kg/injection, schedule: Q01DX005 (ip), vehicle: saline); 118 % of control (dose: 48.0 mg/kg/injection, schedule: Q01DX009 (ip), vehicle: saline); 157 % of control and 160 % of control (dose: 50.0 mg/kg/injection, schedule: Q01DX001 (ip), vehicle: water). Besides, the T/C reads like this: (dose: 50.0 mg/kg/injection, schedule: Q01DX009 (ip), vehicle: water) 103 % of control; (dose: 50.0 mg/kg/injection, schedule: Q04DX003 (ip), vehicle: water) 198 % of control and 214 % of control; (dose: 54.0 mg/kg/injection, schedule: Q04DX002 (ip), vehicle: saline) 209 % of control and 213 % of control; (dose: 60.0 mg/kg/injection, schedule: Q01DX009 (ip), vehicle: saline) 99 % of control; (dose: 60.0 mg/kg/injection, schedule: Q04DX003 (ip), vehicle: saline) 274 % of control; (dose: 62.5 mg/kg/injection, schedule: Q01DX001 (iv), vehicle: saline) 220 % of control. Further, the T/C reads like this: (dose: 64.0 mg/kg/injection, schedule: Q01DX009 (ip), vehicle: saline) 187 % of control and 194 % of control; (dose: 64.8 mg/kg/injection, schedule: Q04DX003 (ip), vehicle: saline) 317 % of control; (dose: 70.0 mg/kg/injection, schedule: Q04DX003 (ip), vehicle: saline) 225 % of control; (dose: 73.0 mg/kg/injection, schedule: Q04DX003 (ip), vehicle: saline) 300 % of control; (dose: 75.0 mg/kg/injection, schedule: Q01DX009 (ip), vehicle: saline) 157 % of control; (dose: 75.0 mg/kg/injection, schedule: Q01DX010 (ip), vehicle: water) 118 % of control. The T/C reads like this: (dose: 75.0 mg/kg/injection, schedule: Q04DX003 (ip), vehicle: saline) 358 % of control; (dose: 80.0 mg/kg/injection, schedule: Q01DX001 (ip), vehicle: saline) 155 % of control; (dose: 80.0 mg/kg/injection, schedule: Q04DX003 (ip), vehicle: saline) 216 % of control and 284 % of control; (dose: 80.0 mg/kg/injection, schedule: Q04DX003 (ip), vehicle: water) 269 % of control; (dose: 80.0 mg/kg/injection, schedule: Q04DX003 (iv), vehicle: saline) 194 % of control; (dose: 90.0 mg/kg/injection, schedule: Q04DX002 (ip), vehicle: saline) 220 % of control and 228 % of control. The T/C reads like this: (dose: 100.0 mg/kg/injection, schedule: Q01DX001 (ip), vehicle: water) 199 % of control and 221 % of control; (dose: 100.0 mg/kg/injection, schedule: Q04DX003 (ip), vehicle: water) 288 % of control and 324 % of control; (dose: 108.0 mg/kg/injection, schedule: Q04DX003 (ip), vehicle: saline) 152 % of control; (dose: 119.0 mg/kg/injection, schedule: Q01DX001 (ip), vehicle: saline) 245 % of control; (dose: 125.0 mg/kg/injection, schedule: Q01DX001 (iv), vehicle: saline) 350 % of control; (dose: 125.0 mg/kg/injection, schedule: Q04DX003 (ip), vehicle: saline) 189 % of control and 196 % of control. The T/C is 394 % of control and 409 % of control (dose: 150.0 mg/kg/injection, schedule: Q04DX002 (ip), vehicle: saline); 111 % of control and 231 % of control and 260 % of control (dose: 150.0 mg/kg/injection, schedule: Q## X001 (ip), vehicle: saline); 114 % of control and 232 % of control (dose: 160.0 mg/kg/injection, schedule: Q01DX001 (ip), vehicle: saline); 221 % of control (dose: 165.0 mg/kg/injection, schedule: Q04DX003 (ip), vehicle: saline); 118 % of control (dose: 180.0 mg/kg/injection, schedule: Q04DX003 (ip), vehicle: saline); 281 % of control and 291 % of control (dose: 200.0 mg/kg/injection, schedule: Q01DX001 (ip), vehicle: water). Besides, the T/C reads like this: (dose: 250.0 mg/kg/injection, schedule: Q01DX001 (ip), vehicle: saline) 98 % of control; (dose: 250.0 mg/kg/injection, schedule: Q01DX001 (iv), vehicle: saline) 353 % of control; (dose: 320.0 mg/kg/injection, schedule: Q01DX001 (ip), vehicle: saline) 215 % of control and 252 % of control; (dose: 600.0 mg/kg/injection, schedule: Q01DX001 (ip), vehicle: water) 100 % of control.
Turning to `COc1cc(C(CC(C)=O)c2cc3c(cc2OC(C)=O)OCO3)cc(OC)c1OC` (stereo not given) (tested in a mixture with another compound), the T/C (dose: 30.0 mg/kg/injection, schedule: Q01DX005 (ip), vehicle: saline with Tween-80) is 99 % of control; the T/C (dose: 60.0 mg/kg/injection, schedule: Q01DX005 (ip), vehicle: saline with Tween-80) was 102 % of control and 122 % of control; the T/C (dose: 120.0 mg/kg/injection, schedule: Q01DX005 (ip), vehicle: saline with Tween-80) was 118 % of control; the T/C (dose: 240.0 mg/kg/injection, schedule: Q01DX005 (ip), vehicle: saline with Tween-80) is 162 % of control and 188 % of control.
In the case of `CC(C)C(NC(=O)OCC[P+](c1ccccc1)(c1ccccc1)c1ccccc1)C(=O)O` (stereo not given), the T/C (dose: 50.0 mg/kg/injection, schedule: Q01DX009 (ip), vehicle: saline with Tween-80) was 116 % of control; the T/C (dose: 100.0 mg/kg/injection, schedule: Q01DX009 (ip), vehicle: saline with Tween-80) was 103 % of control; the T/C (dose: 200.0 mg/kg/injection, schedule: Q01DX009 (ip), vehicle: saline with Tween-80) is 91 % of control.
As to `OC1CC2CCCCC2CC1c1ccccc1` (stereo not given), the T/C (dose: 50.0 mg/kg/injection, schedule: Q04DX002 (ip), vehicle: saline with Tween-80) was 100 % of control and 92 % of control; the T/C (dose: 100.0 mg/kg/injection, schedule: Q04DX002 (ip), vehicle: saline with Tween-80) was 111 % of control and 92 % of control; the T/C (dose: 200.0 mg/kg/injection, schedule: Q04DX002 (ip), vehicle: saline with Tween-80) was 92 % of control and 97 % of control; the T/C (dose: 400.0 mg/kg/injection, schedule: Q04DX002 (ip), vehicle: saline with Tween-80) is 116 % of control.

The record behind these values is PubChem BioAssay AID330 (DTP/NCI, 2004).
